From patent publication US9708334B2, “Substituted 2,4,5,6-tetrahydropyrrolo[3,4-c]pyrazole and 4,5,6,7-tetrahydro-2H-pyrazolo[4,3-c]pyridine compounds as GlyT1 inhibitors” (DART NEUROSCIENCE (CAYMAN) LTD., priority 2014, dated 2017) come the findings set out here.

The target of the experiment is T1, GlyT1 (Homo sapiens, UniProt P48067).
T1 construct: expressed in transfected cells
T1 sequence (P48067 1-706): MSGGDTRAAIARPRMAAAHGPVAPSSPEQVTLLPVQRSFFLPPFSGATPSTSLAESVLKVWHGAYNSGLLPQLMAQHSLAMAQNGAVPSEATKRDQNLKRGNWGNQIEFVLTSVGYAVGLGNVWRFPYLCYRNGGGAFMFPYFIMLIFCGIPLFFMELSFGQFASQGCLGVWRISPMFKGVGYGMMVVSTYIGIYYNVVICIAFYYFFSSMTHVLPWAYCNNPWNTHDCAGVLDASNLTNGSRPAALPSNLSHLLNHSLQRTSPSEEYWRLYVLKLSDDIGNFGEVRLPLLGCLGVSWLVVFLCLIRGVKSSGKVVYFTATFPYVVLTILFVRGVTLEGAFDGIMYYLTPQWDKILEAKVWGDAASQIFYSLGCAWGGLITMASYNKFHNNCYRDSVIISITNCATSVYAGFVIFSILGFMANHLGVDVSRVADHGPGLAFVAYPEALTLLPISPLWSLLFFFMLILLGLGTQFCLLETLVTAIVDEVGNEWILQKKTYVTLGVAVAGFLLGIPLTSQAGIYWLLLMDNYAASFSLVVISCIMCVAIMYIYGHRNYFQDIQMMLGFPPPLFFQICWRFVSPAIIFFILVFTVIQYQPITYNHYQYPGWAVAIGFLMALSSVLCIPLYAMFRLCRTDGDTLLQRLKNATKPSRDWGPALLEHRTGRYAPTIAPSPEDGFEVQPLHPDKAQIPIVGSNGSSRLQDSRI
As to the kind of experiment: Glycine Transporter 1 (GlyT1) uptake assay, scintillation proximity assay of [14C]-glycine uptake. Type of experiment: cell-based. To be noted: SPA, four parameter logistic fit, read-out: GlyT1 (pIC50) (converted). The gist of the method:
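[14C]-glycine uptake read by scintillation proximity on a plate counter. IC50 from four-parameter logistic fit of dose-response data.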
With `CC(C)Oc1ccc(C#N)cc1C(=O)N1Cc2cn(C3CCOCC3)nc2C1` [Example 408, 3-[2-(Oxan-4-yl)-2H 4H 5H 6H-pyrrolo[3,4-c]pyrazole-5-carbonyl]-4-(propan-2-yloxy)benzonitrile], the IC50 was 100 to 1000 nM.

For `C[C@H](Oc1ccc(S(C)(=O)=O)cc1C(=O)N1Cc2cn(CC3CCC3)nc2C1)C(F)(F)F` [Example 409], the IC50 was below 100 nM. `CC(C)Oc1ccc(S(C)(=O)=O)cc1C(=O)N1Cc2cn(CC3CCC3)nc2C1` [Example 410, 2-(Cyclobutylmethyl)-5-[5-methanesulfonyl-2-(propan-2-yloxy)benzoyl]-2H 4H 5H 6H-pyrrolo[3,4-c]pyrazole]: the IC50 is below 100 nM.

With `CC(C)Oc1ccc(C#N)cc1C(=O)N1Cc2cn(CC3CCC3)nc2C1` [Example 411, 3-[2-(Cyclobutylmethyl)-2H 4H 5H 6H-pyrrolo[3,4-c]pyrazole-5-carbonyl]-4-(propan-2-yloxy)benzonitrile], the IC50 was 100 to 1000 nM. For `C[C@H](Oc1ccc(C#N)cc1C(=O)N1Cc2cn(C3CCOCC3)nc2C1)C(F)(F)F` [Example 412, 3-[2-(Oxan-4-yl)-2H 4H 5H 6H-pyrrolo[3,4-c]pyrazole-5-carbonyl]-4-{[(2S)-1 1 1-trifluoropropan-2-yl]oxy}benzonitrile], the IC50 is below 100 nM. Consider `C[C@H](Oc1ccc(S(C)(=O)=O)cc1C(=O)N1Cc2cn(CC3CCCC3)nc2C1)C(F)(F)F` [Example 413, 2-(Cyclopentylmethyl)-5-(5-methanesulfonyl-2-{[(2S)-1 1 1-trifluoropropan-2-yl]oxy}benzoyl)-2H 4H 5H 6H-pyrrolo[3,4-c]pyrazole], for which the IC50 is below 100 nM. Then `C[C@H](Oc1ccc(C#N)cc1C(=O)N1Cc2cn(CC3CCCC3)nc2C1)C(F)(F)F` [Example 414, 3-[2-(Cyclopentylmethyl)-2H 4H 5H 6H-pyrrolo[3,4-c]pyrazole-5-carbonyl]-4-{[(2S)-1 1 1-trifluoropropan-2-yl]oxy}benzonitrile], with 100 to 1000 nM; and `CCS(=O)(=O)c1ccc(OC(C)C)c(C(=O)N2Cc3cn(C4CCCC4)nc3C2)c1` [Example 415, 2-Cyclopentyl-5-[5-(ethanesulfonyl)-2-(propan-2-yloxy)benzoyl]-2H 4H 5H 6H-pyrrolo[3,4-c]pyrazole], with below 100 nM; and `CC[C@H](C)Cn1cc2c(n1)CN(C(=O)c1cc(C#N)ccc1OC(C)C)C2` [Example 416, 3-{2-[(2S)-2-Methylbutyl]-2H 4H 5H 6H-pyrrolo[3,4-c]pyrazole-5-carbonyl}-4-(propan-2-yloxy)benzonitrile], with 100 to 1000 nM.

Turning to `CCS(=O)(=O)c1ccc(O[C@@H](C)C(F)(F)F)c(C(=O)N2Cc3cn(C4CCCC4)nc3C2)c1` [Example 417, 2-Cyclopentyl-5-[5-(ethanesulfonyl)-2-{[(2S)-1 1 1-trifluoropropan-2-yl]oxy}benzoyl]-2H 4H 5H 6H-pyrrolo[3,4-c]pyrazole], the IC50 is below 100 nM.

For the molecule `CC[C@H](C)Cn1cc2c(n1)CN(C(=O)c1cc(C#N)ccc1O[C@@H](C)C(F)(F)F)C2` [Example 418, 3-{2-[(2S)-2-Methylbutyl]-2H 4H 5H 6H-pyrrolo[3,4-c]pyrazole-5-carbonyl}-4-{[(2S)-1 1 1-trifluoropropan-2-yl]oxy}benzonitrile], the IC50 was 100 to 1000 nM. Take `C[C@H](Oc1ccc(C#N)cc1C(=O)N1Cc2cn(CC3CCOC3)nc2C1)C(F)(F)F` (stereo partly drawn) [Example 419, 3-[2-(Oxolan-3-ylmethyl)-2H 4H 5H 6H-pyrrolo[3,4-c]pyrazole-5-carbonyl]-4-{[(2S)-1 1 1-trifluoropropan-2-yl]oxy}benzonitrile]: the IC50 was 100 to 1000 nM. On to `CC(C)Oc1ccc(C#N)cc1C(=O)N1Cc2cn(CC3CCOC3)nc2C1` (centres unmarked) [Example 420, 3-[2-(Oxolan-3-ylmethyl)-2H 4H 5H 6H-pyrrolo[3,4-c]pyrazole-5-carbonyl]-4-(propan-2-yloxy)benzonitrile], for which the IC50 was 100 to 1000 nM. Take `C[C@H](Oc1ccc(C#N)cc1C(=O)N1Cc2cnn(-c3ccnnc3)c2C1)C(F)(F)F` [Example 421, 3-[1-(Pyridazin-4-yl)-1H 4H 5H 6H-pyrrolo[3,4-c]pyrazole-5-carbonyl]-4-{[(2S)-1 1 1-trifluoropropan-2-yl]oxy}benzonitrile]: the IC50 was 100 to 1000 nM. As to `CC(C)Oc1ccc(C#N)cc1C(=O)N1Cc2cn(-c3ccnnc3)nc2C1` [Example 422, 4-(Propan-2-yloxy)-3-[2-(pyridazin-4-yl)-2H 4H 5H 6H-pyrrolo[3,4-c]pyrazole-5-carbonyl]benzonitrile], the IC50 was 100 to 1000 nM. Turning to `C[C@H](Oc1ccc(C#N)cc1C(=O)N1Cc2cn(-c3ccnnc3)nc2C1)C(F)(F)F` [Example 423, 3-[2-(Pyridazin-4-yl)-2H 4H 5H 6H-pyrrolo[3,4-c]pyrazole-5-carbonyl]-4-{[(2S)-1 1 1-trifluoropropan-2-yl]oxy}benzonitrile], the IC50 is below 100 nM. In the case of `CC(C)Oc1ccc(C#N)cc1C(=O)N1Cc2cn(-c3ccn4ccnc4c3)nc2C1` [Example 424, 3-(2-{Imidazo[1 2-a]pyridin-7-yl}-2H 4H 5H 6H-pyrrolo[3,4-c]pyrazole-5-carbonyl)-4-(propan-2-yloxy)benzonitrile] it was 1000 to 10000 nM; in that of `C[C@H](Oc1ccc(C#N)cc1C(=O)N1Cc2cn(-c3ccn4ccnc4c3)nc2C1)C(F)(F)F` [Example 425, 3-(2-{Imidazo[1 2-a]pyridin-7-yl}-2H 4H 5H 6H-pyrrolo[3,4-c]pyrazole-5-carbonyl)-4-{[(2S)-1 1 1-trifluoropropan-2-yl]oxy}benzonitrile], 100 to 1000 nM; in that of `CS(=O)(=O)c1ccc(-c2cccc(F)c2)c(C(=O)N2Cc3cn(CC4CCC4)nc3C2)c1` [Example 426, 2-(Cyclobutylmethyl)-5-[2-(3-fluorophenyl)-5-methanesulfonylbenzoyl]-2H 4H 5H 6H-pyrrolo[3,4-c]pyrazole], below 100 nM. On to `CC(C)Cn1cc2c(n1)CN(C(=O)c1cc(S(C)(=O)=O)ccc1-c1cccc(F)c1)C2` [Example 427, 5-[2-(3-Fluorophenyl)-5-methanesulfonylbenzoyl]-2-(2-methylpropyl)-2H 4H 5H 6H-pyrrolo[3,4-c]pyrazole], for which the IC50 was below 100 nM. Regarding `CCS(=O)(=O)c1ccc(N2CCC(F)(F)CC2)c(C(=O)N2Cc3cn(CC4CCC4)nc3C2)c1` [Example 428, 1-{2-[2-(Cyclobutylmethyl)-2H 4H 5H 6H-pyrrolo[3,4-c]pyrazole-5-carbonyl]-4-(ethanesulfonyl)phenyl}-4 4-difluoropiperidine], the IC50 is below 100 nM.

For `CS(=O)(=O)c1ccc(N2CCC(F)(F)CC2)c(C(=O)N2Cc3cn(C4CCCC4)nc3C2)c1` [Example 430, 1-(2-{2-Cyclopentyl-2H 4H 5H 6H-pyrrolo[3,4-c]pyrazole-5-carbonyl}-4-methanesulfonylphenyl)-4 4-difluoropiperidine], the IC50 is below 100 nM. Then `CS(=O)(=O)c1ccc(N2CCC(F)(F)CC2)c(C(=O)N2Cc3cn(CC4CCC4)nc3C2)c1` [Example 431, 1-{2-[2-(Cyclobutylmethyl)-2H 4H 5H 6H-pyrrolo[3,4-c]pyrazole-5-carbonyl]-4-methanesulfonylphenyl}-4 4-difluoropiperidine], with below 100 nM; and `CC(C)Cn1cc2c(n1)CN(C(=O)c1cc(S(C)(=O)=O)ccc1N1CCC(F)(F)CC1)C2` [Example 432, 4 4-Difluoro-1-{4-methanesulfonyl-2-[2-(2-methylpropyl)-2H 4H 5H 6H-pyrrolo[3,4-c]pyrazole-5-carbonyl]phenyl}piperidine], with below 100 nM; and `CC(C)n1cc2c(n1)CN(C(=O)c1cc(S(C)(=O)=O)ccc1N1CCC(F)(F)CC1)C2` [Example 433, 4 4-Difluoro-1-{4-methanesulfonyl-2-[2-(propan-2-yl)-2H 4H 5H 6H-pyrrolo[3,4-c]pyrazole-5-carbonyl]phenyl}piperidine], with 100 to 1000 nM. Take `CC(C)(F)Cn1cc2c(n1)CN(C(=O)c1cc(S(C)(=O)=O)ccc1-c1cccc(F)c1)C2` [Example 434, 2-(2-Fluoro-2-methylpropyl)-5-[2-(3-fluorophenyl)-5-methanesulfonylbenzoyl]-2H 4H 5H 6H-pyrrolo[3,4-c]pyrazole]: the IC50 was 100 to 1000 nM. Take `CC1(COc2ccc(S(C)(=O)=O)cc2C(=O)N2Cc3cn(-c4ccccc4)nc3C2)COC1` [Example 435, 5-{5-Methanesulfonyl-2-[(3-methyloxetan-3-yl)methoxy]benzoyl}-2-phenyl-2H 4H 5H 6H-pyrrolo[3,4-c]pyrazole]: the IC50 is below 100 nM. As for `CC1(COc2ccc(S(C)(=O)=O)cc2C(=O)N2Cc3cn(-c4ccccc4F)nc3C2)COC1` [Example 436, 2-(2-Fluorophenyl)-5-{5-methanesulfonyl-2-[(3-methyloxetan-3-yl)methoxy]benzoyl}-2H 4H 5H 6H-pyrrolo[3,4-c]pyrazole], the IC50 is 100 to 1000 nM. Take `Cc1cccc(-n2cc3c(n2)CN(C(=O)c2cc(S(C)(=O)=O)ccc2OCC2(C)COC2)C3)c1` [Example 437, 5-{5-Methanesulfonyl-2-[(3-methyloxetan-3-yl)methoxy]benzoyl}-2-(3-methylphenyl)-2H 4H 5H 6H-pyrrolo[3,4-c]pyrazole]: the IC50 was below 100 nM.
